Earlier results as cited in patent publication US20110208118A1, “COMPOSITIONS AND MEANS FOR TREATING UTERINE LEIOMYOMATA, LEIOMYOMA, MYOMA, UTERINE FIBROIDS, ENDOMETRIOSIS, ADENOMYOSIS AND RELATED DISORDERS BY MIFEPRISTONE” (Bio-Pro Medical Ltd., priority 2007, published 2011).

System: uterine leiomyomata
[1] = oral mifepristone doses of 5 mg-50 mg

## CC#C[C@]1(O)CC[C@H]2[C@@H]3CCC4=CC(=O)CCC4=C3[C@@H](c3ccc(N(C)C)cc3)C[C@@]21C [mifepristone]
10 mg and 20 mg mifepristone daily for 12 weeks, women with large leiomyomata (Yang et al.)
  Reduction in volume of leiomyomata, 10 mg vs 20 mg groups: equivalent in the two groups
5, 25, and 50 mg of mifepristone daily for 12 weeks (Murphy et al.)
  regression in the size of uterine leiomyomata: clinically significant regression
[1]
  uterine and uterine fibroids size: reduction in uterine and uterine fibroids size
  uterine fibroids symptoms: improvement in uterine fibroids symptoms
